Reference: ChEMBL document CHEMBL1143473, “Synthesis and evaluation of 18F-labeled dopamine D3 receptor ligands as potential PET imaging agents” (Bioorg Med Chem Lett, 2005)

Tests used:
D(4) dopamine receptor = target: T1, D(4) dopamine receptor (Homo sapiens, UniProt P21917); experiment: biochemical
T1 sequence (P21917 whole entry): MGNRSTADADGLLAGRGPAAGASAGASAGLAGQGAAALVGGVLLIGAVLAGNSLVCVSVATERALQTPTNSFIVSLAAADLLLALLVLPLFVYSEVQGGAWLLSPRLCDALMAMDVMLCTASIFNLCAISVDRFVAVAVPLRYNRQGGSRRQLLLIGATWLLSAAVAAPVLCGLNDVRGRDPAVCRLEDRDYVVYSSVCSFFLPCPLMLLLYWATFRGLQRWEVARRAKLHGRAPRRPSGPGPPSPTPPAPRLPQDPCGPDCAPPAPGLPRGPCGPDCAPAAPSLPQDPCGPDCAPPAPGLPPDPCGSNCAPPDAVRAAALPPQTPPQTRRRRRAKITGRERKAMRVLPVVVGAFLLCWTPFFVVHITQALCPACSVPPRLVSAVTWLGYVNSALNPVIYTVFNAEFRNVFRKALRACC
Description: Binding affinity towards Dopamine receptor D 4.4 using CHO cell line and [3H]spiperone as radioligand

D(2) dopamine receptor [1] = target: T2, D(2) dopamine receptor (Homo sapiens, UniProt P14416); experiment: biochemical
T2 sequence (P14416 whole entry): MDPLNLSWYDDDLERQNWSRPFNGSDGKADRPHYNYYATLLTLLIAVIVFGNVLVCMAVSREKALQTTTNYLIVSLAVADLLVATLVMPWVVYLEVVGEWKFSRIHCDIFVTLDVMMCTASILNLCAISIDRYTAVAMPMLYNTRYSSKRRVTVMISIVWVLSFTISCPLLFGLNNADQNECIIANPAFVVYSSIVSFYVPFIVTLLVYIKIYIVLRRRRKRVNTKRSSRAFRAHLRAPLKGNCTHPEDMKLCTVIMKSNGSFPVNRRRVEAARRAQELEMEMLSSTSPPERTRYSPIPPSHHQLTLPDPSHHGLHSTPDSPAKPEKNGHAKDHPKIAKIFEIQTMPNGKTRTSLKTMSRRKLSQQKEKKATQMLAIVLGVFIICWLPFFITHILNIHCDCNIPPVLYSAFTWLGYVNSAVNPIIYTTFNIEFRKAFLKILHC
Description: Binding affinity towards Dopamine D2S receptor using CHO cell line and [3H]spiperone as radioligand

D(3) dopamine receptor = D(3) dopamine receptor (Homo sapiens, UniProt P35462); experiment: biochemical
Chain of D(3) dopamine receptor (P35462 whole entry): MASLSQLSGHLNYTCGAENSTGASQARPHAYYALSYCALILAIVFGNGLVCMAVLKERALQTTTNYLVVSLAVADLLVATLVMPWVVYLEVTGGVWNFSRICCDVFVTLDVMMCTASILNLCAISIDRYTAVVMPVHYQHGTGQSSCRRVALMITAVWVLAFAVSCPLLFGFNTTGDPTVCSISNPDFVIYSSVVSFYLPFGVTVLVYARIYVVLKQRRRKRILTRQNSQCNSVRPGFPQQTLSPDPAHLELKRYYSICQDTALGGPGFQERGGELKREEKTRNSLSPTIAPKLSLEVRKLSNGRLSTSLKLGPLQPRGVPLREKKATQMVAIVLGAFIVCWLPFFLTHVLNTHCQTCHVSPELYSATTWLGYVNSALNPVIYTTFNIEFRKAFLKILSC
Description: Binding affinity towards Dopamine receptor D3 using CHO cell line and [3H]-spiperone as radioligand

D(2) dopamine receptor [2] = target: T2, D(2) dopamine receptor; experiment: biochemical; remark: listed apart in the source
Description: Binding affinity towards Dopamine D2L receptor using CHO cell line and [3H]spiperone as radioligand

D(1A) dopamine receptor = D(1A) dopamine receptor (Sus scrofa, UniProt P50130); experiment: Binding affinity towards Dopamine receptor D1 using porcine striatal membrane and [3H]-SCH- 23390 as radioligand; parameters: species or system Striatum
Chain of D(1A) dopamine receptor (P50130 whole entry): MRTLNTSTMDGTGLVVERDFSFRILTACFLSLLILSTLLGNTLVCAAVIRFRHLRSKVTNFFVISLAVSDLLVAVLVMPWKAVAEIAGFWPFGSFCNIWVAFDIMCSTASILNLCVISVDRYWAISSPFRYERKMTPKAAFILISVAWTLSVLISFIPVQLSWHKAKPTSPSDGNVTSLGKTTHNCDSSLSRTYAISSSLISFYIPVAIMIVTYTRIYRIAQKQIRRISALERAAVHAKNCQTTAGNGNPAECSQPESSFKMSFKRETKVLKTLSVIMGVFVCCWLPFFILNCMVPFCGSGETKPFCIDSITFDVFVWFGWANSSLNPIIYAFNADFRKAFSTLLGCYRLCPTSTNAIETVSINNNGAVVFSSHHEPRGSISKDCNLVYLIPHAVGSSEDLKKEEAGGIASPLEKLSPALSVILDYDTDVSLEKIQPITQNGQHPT

[3] = Binding affinity towards 5-HT2 receptor using porcine cortical membrane and [3H]ketanserin as radioligand; parameters: species or system Sus scrofa

| Ki (D(4) dopamine receptor) [nM] | Ki (D(2) dopamine receptor [1]) [nM] | Ki (D(3) dopamine receptor) [nM] | Ki (D(2) dopamine receptor [2]) [nM] | Ki (D(1A) dopamine receptor) [nM] | Ki [3] [nM] | SMILES |
| --- | --- | --- | --- | --- | --- | --- |
| 9.9 | 120 | 210 | 72 | 3500 | – | COc1ccccc1N1CCN(CCCCNS(=O)(=O)c2ccc(F)cc2)CC1 |
| 76 | 400 | 86 | 260 | 4100 | 3200 | COc1ccccc1N1CCN(CCCCNC(=O)c2cccc(F)n2)CC1 |
| – | – | – | – | – | 3000 | O=C(NCCCCN1CCN(c2cccc(Cl)c2Cl)CC1)c1cc2ccccc2s1 |
| 97 | 57 | 9 | 44 | 910 | 240 | O=C(NCCCCN1CCN(c2cccc(Cl)c2Cl)CC1)c1cccc(F)n1 |
| 44 | 18 | 0.53 | – | 920 | 230 | O=C(NCCCCN1CCN(c2cccc(Cl)c2Cl)CC1)c1ccc(F)cc1 |
| – | – | – | – | – | 2300 | COc1ccccc1N1CCN(CCCCNC(=O)c2ccc(F)cc2)CC1 |
| 100 | 29 | 1.1 | 21 | 1300 | 84 | O=C(NCCCCN1CCN(c2cccc(Cl)c2Cl)CC1)c1ccc(F)nc1 |
| 130 | 240 | 14 | 160 | 6300 | 3700 | COc1ccccc1N1CCN(CCCCNC(=O)c2ccc(F)nc2)CC1 |

| SMILES | Ki (D(4) dopamine receptor) [nM] | Ki (D(2) dopamine receptor [1]) [nM] | Ki (D(3) dopamine receptor) [nM] | Ki (D(2) dopamine receptor [2]) [nM] | Ki (D(1A) dopamine receptor) [nM] | Ki [3] [nM] |
| --- | --- | --- | --- | --- | --- | --- |
| O=S(=O)(NCCCCN1CCN(c2cccc(Cl)c2Cl)CC1)c1ccc(F)cc1 | 17 | 49 | 16 | 39 | 1800 | 830 |
